Earlier results as cited in publication PMC4387274, “A phase 1 dose escalation study of BI 831266, an inhibitor of Aurora kinase B, in patients with advanced solid tumors” (Investigational New Drugs, 2014).

What was measured:
acute myeloid leukemia = test system: acute myeloid leukemia; design: method as in PMID 23605952; conditions: compared with low-dose cytosine arabinoside control arm
[1] = 121 patients with solid malignancies

| SMILES | Safety in ongoing phase 1 study (solid malignancies; 105 mg in Schedule A) | Objective responses (solid malignancies; [1]) | Patients achieving SD (solid malignancies; [1]) | Objective clinical response rate (acute myeloid leukemia) |
| --- | --- | --- | --- | --- |
| CC(C)NC(=O)[C@H]1CCC[C@H]1Nc1nc(Nc2ccc(C(=O)N(C)C3CCN(C)CC3)cc2)ncc1C(F)(F)F [BI 811283] | no significant safety issues | no objective responses | a third of the patients | – |
| CCN(CCCOc1ccc2c(Nc3cc(CC(=O)Nc4cccc(F)c4)n[nH]3)ncnc2c1)CCOP(=O)(O)O [barasertib] | – | – | – | superior objective clinical response rate |
